pIC50: −log10 of the molar value. Values joined by “and” are separate entries in the source; they are usually repeats but may differ in a detail not shown here. Equal entries are not always repeated. Active and inactive are the calls of the source.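 The calls were made as follows: active = IC50 at or below 20 µM in the dose response; inactive = the rest.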
System: HL-1 cardiomyocytes, 2-deoxyglucose injury, ATPlite viability, 2 h
Assay: protection of HL-1 cells from ATP loss, SAR follow-up, 2-deoxyglucose, set 2 (AID 624473)

Structure (SMILES)	IC50	pIC50
COc1cccc(N2C(=O)c3ccccc3N3C(=O)c4ccccc4C23)c1 (stereo not given)	> 79 µM (inactive)	–
COc1cccc(CNC(=O)c2cc(-c3ccc(OC)c(OC)c3)nc3ccccc23)c1	–	5.03
COc1ccc2c(c1OC)C(=O)N1c3ccccc3C(=O)N(c3cccc(C)c3)C21 (stereo not given)	–	4.78
COc1ccc(-c2cc(C(=O)Nc3cccc(C(C)=O)c3)c3ccccc3n2)cc1	> 79 µM (inactive)	–
COc1ccc2c(c1OC)C(=O)N1c3ccccc3C(=O)N(c3ccc(Br)cc3)C21 (stereo not given)	–	5.71
COc1cc(-c2cc(C(=O)Nc3ccccc3)c3ccccc3n2)cc(OC)c1OC	–	5.09
COc1ccc(-c2cc(C(=O)Nc3cccc(C(C)=O)c3)c3ccccc3n2)cc1OC	19.8 µM (inactive)	–
COc1ccc2c(c1OC)C(=O)N1c3ccccc3C(=O)N(c3ccc(C(C)(C)C)cc3)C21 (stereo not given)	> 79 µM (inactive)	–
COc1cc(-c2cc(C(=O)Nc3cccc(C(C)=O)c3)c3cc(Cl)ccc3n2)cc(OC)c1OC	> 79 µM (inactive)	–
CCOC(=O)c1cccc(NC(=O)c2cc(-c3cc(OC)c(OC)c(OC)c3)nc3ccccc23)c1	–	5.37
COc1cc(-c2cc(C(=O)Nc3ccc(C(C)=O)cc3)c3ccccc3n2)cc(OC)c1OC	–	5.18
COc1cc(-c2cc(C(=O)Nc3cccc(C(C)=O)c3)c3ccccc3n2)cc(OC)c1OC	–	5.15 and 4.99
COc1cc(-c2cc(C(=O)Nc3cccc(C(F)(F)F)c3)c3ccccc3n2)cc(OC)c1OC	> 79 µM (inactive)	–
CC(=O)c1cccc(NC(=O)c2cc(-c3ccccc3)nc3ccccc23)c1	–	4.85
COc1cccc(NC(=O)c2cc(-c3cc(OC)c(OC)c(OC)c3)nc3ccccc23)c1	> 79 µM (inactive)	–
COc1ccc(NC(=O)c2cc(-c3cc(OC)c(OC)c(OC)c3)nc3ccccc23)cc1	> 79 µM (inactive)	–
COc1ccc2c(c1OC)C(=O)N1c3ccccc3C(=O)N(Cc3cccc(Cl)c3)C21 (stereo not given)	–	5.07
COc1ccc2c(c1OC)C(=O)N1c3ccccc3C(=O)N(Cc3ccccc3Cl)C21 (stereo not given)	–	5.40

Structure (SMILES)	IC50	pIC50
COc1ccc2c(c1OC)C(=O)N1c3ccccc3C(=O)N(c3cccc(Br)c3)C21 (stereo not given)	3.64 µM and 34.8 µM (inactive)	–
COc1cc(-c2cc(C(=O)Nc3cccc(Cl)c3)c3ccccc3n2)cc(OC)c1OC	> 79 µM (inactive)	–
COc1cc(-c2cc(C(=O)Nc3cccc(C)c3)c3ccccc3n2)cc(OC)c1OC	> 79 µM (inactive)	–
CCN(CC(=O)Nc1ccc(OC)cc1)C(=O)c1cc(-c2cc(OC)c(OC)c(OC)c2)nc2ccccc12	22.6 µM (inactive)	–
COc1cccc(N2C(=O)c3ccccc3N3C(=O)c4c(ccc(OC)c4OC)C23)c1 (stereo not given)	–	4.81
COc1ccc(N2C(=O)c3ccccc3N3C(=O)c4c(ccc(OC)c4OC)C23)cc1 (stereo not given)	–	4.74
COc1ccc2c(c1OC)C(=O)N1c3ccccc3C(=O)N(c3ccccc3)C21 (stereo not given)	–	5.29
COc1ccc2c(c1OC)C(=O)N1c3ccccc3C(=O)N(c3cccc(C(F)(F)F)c3)C21 (stereo not given)	–	4.70
COc1cc(-c2cc(C(=O)Nc3cccc(F)c3)c3ccccc3n2)cc(OC)c1OC	> 79 µM (inactive)	–
COc1ccc2c(c1OC)C(=O)N1c3ccccc3C(=O)N(c3cccc(F)c3)C21 (stereo not given)	–	4.86
COc1cccc(CNC(=O)c2cc(-c3cc(OC)c(OC)c(OC)c3)nc3ccccc23)c1	–	4.91
COc1ccc2c(c1OC)C(=O)N1c3ccccc3C(=O)N(c3cccc(Cl)c3)C21 (stereo not given)	–	5.12
COc1cccc(-c2cc(C(=O)Nc3cccc(C(C)=O)c3)c3ccccc3n2)c1	–	5.02
CCN(CC(=O)Nc1ccc(OC)cc1)C(=O)c1cc(-c2cccs2)nn1-c1ccccc1	–	5.08 and 5.02
O=C1c2ccccc2N2C(=O)c3ccccc3C2N1c1ccccc1 (stereo not given)	> 79 µM (inactive)	–
COc1ccc2c(c1OC)C(=O)N1c3ccccc3C(=O)N(c3ccc(C)cc3)C21 (stereo not given)	–	5.52
O=C1c2ccccc2N2C(=O)c3ccccc3C2N1c1cccc(Br)c1 (stereo not given)	> 79 µM (inactive)	–

Reference: PubChem BioAssay AID624473 (Sanford-Burnham Center for Chemical Genomics, 2012)
